Patent USRE36854E, “Vitamin D compounds and method of preparing these compounds” (Duphar International Research B.V., priority 1997, dated 2000)

Columns and labels:
[1] = tested on: intestinal cancer cell line Caco-2; assay: Caco-2 assay for intestinal calcium transport (45Ca2+ influx); assay type: cell-based; conditions: for relative increase in Ca^2+ influx (1α,25-DHCC = 100): 10^-9 M
Protocol: The most well-known effect of 1α,25-DHCC is its action on the calcium metabolism, the calciotropic effect. Calciotropic target organs are the intestine, the bone and the kidney. The vitamin D compounds according to the invention are dissolved in ethanol and tested in the so-called Caco-2 assay for intestinal calcium (Ca) transport. In this assay, the vitamin D-induced influx of ^45 Ca^2+ is measured in monolayers of the intestinal cancer cell line Caco-2. This influx is corrected for the concentration-driven Ca^2+ influx and is a measure for the Ca transport across the intestinal wall. The Caco-2 cells are known to have vitamin D receptors. Increased intestinal calcium transport can be the first step leading to a rise in blood calcium levels (and eventually to hypercalcemia). […] The values in the table represent the relative increase in Ca^2 + influx (the value for 1α,25-DHCC is arbitrarily fixed at 100).

[2] = molecular target: T1, human vitamin D binding protein (DBP) (Homo sapiens, UniProt P02774); assay: Affinity to vitamin D binding protein (competition with 3H-1α,25-DHCC); conditions: DBP purified from total human serum; 10^-11 to 2.5×10^-6 M; FIGS. 1 and 2
T1 sequence (P02774 17-474): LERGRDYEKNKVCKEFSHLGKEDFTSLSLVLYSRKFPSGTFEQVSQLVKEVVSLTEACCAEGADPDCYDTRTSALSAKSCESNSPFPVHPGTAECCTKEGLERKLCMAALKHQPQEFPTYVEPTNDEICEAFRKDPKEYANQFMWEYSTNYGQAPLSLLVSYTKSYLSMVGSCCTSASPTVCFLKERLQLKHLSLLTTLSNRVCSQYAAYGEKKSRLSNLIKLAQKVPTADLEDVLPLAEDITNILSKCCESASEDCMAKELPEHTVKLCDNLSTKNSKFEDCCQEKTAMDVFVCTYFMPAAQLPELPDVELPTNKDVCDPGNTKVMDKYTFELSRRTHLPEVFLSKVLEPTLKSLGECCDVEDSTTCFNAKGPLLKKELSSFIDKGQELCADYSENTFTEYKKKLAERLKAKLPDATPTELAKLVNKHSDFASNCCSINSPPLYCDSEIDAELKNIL
Protocol: Vitamin D binding protein (DBP) is the specific carrier for vitamin D and its metabolites in blood. The biological activity of vitamin D compounds depends on their binding to DBP, because strong binding to DBP will reduce the intracellular access to the VDR. Binding to the DBP may also influence the half-life of the vitamin D derivatives in circulation. Weak binders are rapidly matabolized, which is a favourable aspect in topical application. In the assay DBP is incubated with ^3 H-1α,25-DHCC and 1α,25-DHCC or with several vitamin D compounds according to the invention. To this purpose, the vitamin compounds are dissolved in ethanol in concentrations ranging from 10^-11 to 2.5×10^-6 M. The percentage bound/unbound ^3 H-1α,25-DHCC is then calculated. DBP is purified from total human serum. The results are shown in the appended FIGS. 1 and 2. FIGS. 1 and 2 show the binding of vitamin D compounds to human vitamin D binding protein. [^3 H]1α,25(OH)2 D3 =^3 H-1α,25-DHCC; in both Figures .circle-solid.=1α,25-DHCC (known compound); in FIG. 1 .tangle-solidup.=compound 13 and .gradient.=compound 14; in FIG. 2 Δ=compound 11.

[3] = tested on: HL-60 cells / intestinal Ca^2+ transport; assay: Cell differentiation versus calciotropic effect (ratio of HL-60 NBT reduction to intestinal Ca2+ transport); assay type: cell-based, human; conditions: for selectivity of action / better ratio than 1α,25-DHCC (fold): differentiation versus intestinal Ca transport; for ratio relative to DHCC: fraction normalised to 1α,25-DHCC = 1.00; for fraction (concentration for 50% NBT reduction in HL-60 cells / concentration for half-maximal increase in intestinal Ca^2+ transport): smaller ratio = higher relative cell differentiating capacity
From the text: Therefore, it should be very advantageous to develop compounds with a high selectivity of biological action. In other words, compounds in which the ratio between the induction of cell differentiation and calciotropic effects, e.g. the stimulation of intestinal Ca transport, is changed compared to 1α,25-DHCC. The ratio between differentiation-inducing capacity and the stimulation of intestinal Ca transport is defined as the fraction between the concentration at which 50% NBT reduction in HL-60 cells is obtained, and the concentration at which a half-maximal increase in intestinal Ca^2+ transport is reached. The smaller the ratio, the higher the relative cell differentiating capacity.

[4] = molecular target: T2, calf thymus intracellular vitamin D receptor (VDR) (Bos taurus, UniProt Q28037); assay: Affinity to intracellular vitamin D receptor (displacement of 3H-1α,25-DHCC); assay type: binding; conditions: 10^-13 to 10^-7 M
T2 construct: 3H-1α,25-DHCC displacement
T2 sequence (Q28037 1-426): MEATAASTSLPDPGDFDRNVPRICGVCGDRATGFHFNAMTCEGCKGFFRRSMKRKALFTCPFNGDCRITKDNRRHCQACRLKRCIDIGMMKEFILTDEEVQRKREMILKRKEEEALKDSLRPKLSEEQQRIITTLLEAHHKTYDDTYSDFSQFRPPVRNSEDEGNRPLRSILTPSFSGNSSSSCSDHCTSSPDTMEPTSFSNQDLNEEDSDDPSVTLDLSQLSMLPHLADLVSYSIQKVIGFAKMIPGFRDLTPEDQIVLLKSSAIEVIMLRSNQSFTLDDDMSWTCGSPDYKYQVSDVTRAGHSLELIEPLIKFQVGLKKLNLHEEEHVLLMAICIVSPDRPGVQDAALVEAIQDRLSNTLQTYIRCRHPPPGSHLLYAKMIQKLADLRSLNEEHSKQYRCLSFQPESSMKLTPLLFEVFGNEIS
From the text: In this assay, ^3 H-1α,25-dihydroxycholecalciferol (^3 H-1α,25-DHCC), which is specifically bound to the VDR, is replaced by the tested compounds. Especially the tested compounds 11, 13 and 14 have a very high VDR-affinity. A high VDR-affinity is indicative for biologically active substances.

[5] = tested on: human leukemic cell line HL-60; assay: HL-60 cell differentiation assay (NBT reduction, non-specific esterase, May-Grunwald Giemsa); assay type: cell-based; conditions: for induction of differentiation and maturation of the HL-60 cells: 10^-12 to 10^-6 M; for induction of differentiation and maturation of the HL-60 cells / NBT-reduction inducing capacity relative to 1α,25-DHCC (fold stronger) / differentiation in the cytological test (non-specific esterase and May-Grunwald Giemsa): HL-60; for NBT-reduction inducing capacity relative to 1α,25-DHCC (fold stronger): FIGS. 3 and 4; for concentration range of optimum effect: HL-60, cytological test
Protocol: Vitamin D compounds according to the invention are dissolved in ethanol in concentrations ranging from 10^-12 to 10^-6 M and tested for their capacity to induce cell differentiation in a HL-60 assay. In this assay, morphologic and biochemical examination of the human leukemic cell line HL-60 is done, in order to establish whether cell differentiation has taken place.
Differentiation is expressed as the maturation parameters nitroblue tetrazolium (NBT) reduction, non-specific esterase, and as the percentage of mature cells beyond the myelocyte stage which is visible after staining with May-Grunwald Giemsa. After culturing with the known 1α,25-DHCC or with vitamin D compounds of the invention, the percentage of cells containing black formazan deposits is determined. An increase in the percentage of NBT reducing cells indicates an increase in cell differentiation.
Proliferation and vitality of the cell cultures are established by counting the number of cells and by the trypan blue exclusion method.

rabbit kidney cells = assay: Rabbit kidney cell assay (45Ca2+ reabsorption); assay type: cell-based; conditions: rabbit renal cell cultures; for increase in Ca^2+ -reabsorption: 10^-9 M
Protocol: Together with the intestine and the bone, the kidney is one of the major target organs of 1α,25-DHCC. The kidney plays an extremely important role in calcium homeostasis, since about 98% of the calcium has to be reabsorbed in the kidneys in order to prevent calcium loss and hypocalcemia. The vitamin D compounds according to the invention are dissolved in ethanol and tested in the rabbit kidney cell assay. In this assay, reabsorption of ^45 Ca^2+ is measured in monolayers of rabbit kidney cells. The cells are isolated by immunodissection of connecting tubules with the aid of monoclonal antibodies. […] The values in the Table represent the increase in Ca^2+ -reabsorption in mmol/cm^2 /h.

Compound	stimulation of intestinal calcium absorption compared with 1α,25-DHCC [1]	relative increase in Ca^2+ influx (1α,25-DHCC = 100) ([1]; experiment 2)	binding to the DBP, compared to the known 1α,25-DHCC [2]	selectivity of action / better ratio than 1α,25-DHCC (fold) [3]	ratio relative to DHCC [3]	fraction (concentration for 50% NBT reduction in HL-60 cells / concentration for half-maximal increase in intestinal Ca^2+ transport) [3]	VDR-affinity [4]	induction of differentiation and maturation of the HL-60 cells [5]	NBT-reduction inducing capacity relative to 1α,25-DHCC (fold stronger) [5]	relative increase in Ca^2+ influx (1α,25-DHCC = 100) ([1]; experiment 1)	increase in Ca^2+ -reabsorption (rabbit kidney cells)	stimulation of renal Ca-reabsorption compared with compound 12 and 1α,25-DHCC (rabbit kidney cells)	differentiation in the cytological test (non-specific esterase and May-Grunwald Giemsa) [5]	concentration range of optimum effect [5]
C=C1/C(=C\C=C2/CCC[C@@]3(CC)C2CCC3[C@H](C)CCCC(O)(C(C)C)C(C)C)C[C@@H](O)C[C@@H]1O (stereo partly drawn) [Compound 14]	weaker stimulators	78	bind rather weakly	50 ×	0.02	2.6	very high	induce differentiation and maturation	about 10 ×					
C=C1/C(=C\C=C2/CCC[C@@]3(C)C2CCC3[C@H](C)CCCC(O)(C(C)(C)C)C(C)(C)C)C[C@@H](O)C[C@@H]1O (stereo partly drawn) [Compound 12]				4 ×	0.28	29.7		induce differentiation and maturation	about 5 ×	99	12.8 mmol/cm^2 /h			
C=C1/C(=C\C=C2/CCC[C@@]3(C)C2CCC3[C@H](C)CCCC(O)(C(C)C)C(C)C)C[C@@H](O)C[C@@H]1O (stereo partly drawn) [Compound 13]	weaker stimulators	65	very weak binder	50 ×	0.02	2.5	very high	induce differentiation and maturation	about 10 ×		-3.7 mmol/cm^2 /h	weaker stimulators	good differentiators	10^-8 to 10^-7 M
C=C1/C(=C\C=C2/CCC[C@]3(C)[C@@H]([C@H](C)CCCC(C)(C)O)CC[C@@H]23)C[C@@H](O)C[C@@H]1O [1α,25-DHCC, 1α,25-dihydroxycholecalciferol, reference compound]		100			1.00	107		induce differentiation and maturation		100	13.4 mmol/cm^2 /h			
C=C1/C(=C\C=C2/CCC[C@@]3(C)C2CCC3[C@H](C)CCCC(O)(C2CC2)C2CC2)C[C@@H](O)C[C@@H]1O (stereo partly drawn) [Compound 11]	weaker stimulators		bind rather weakly	8 ×	0.13	14.4	very high	induce differentiation and maturation	about 5 ×	79	2.4 mmol/cm^2 /h	weaker stimulators	good differentiators	10^-8 to 10^-7 M
